Results published in patent US20250090510A1, “eIF4G1-eIF1 INHIBITORS AND USE THEREOF” (YEDA RESEARCH AND DEVELOPMENT CO. LTD., priority 2022, published 2025).

Target: T1, eIF4G1 (Homo sapiens, UniProt Q04637)
T1 construct: The pET-28-His-bdSumo-eIF4G1 (675-1129) was generated using eIF4G1 (675-1129) as insert and pET-28-14His-bdSumo as backbone; bdSUMO (N); made in house; host or cells: E. coli BL21
Test: Intrinsic fluorescence of His-eIF4G1
Format: binding
Conditions: 0-256 μM, 5 minutes, excitation 280 nm, emission 350 nm; read-out: IC50, loss of eIF4G1 intrinsic fluorescence
From the text: FIGS. 1A-G: Identification and initial characterization of eIF1-eIF4G1 inhibitors using a high-throughput drug screen (HTS). (1A) A flowchart describing the steps of the recombinant eIF1-eIF4G1 split-RL HTS. (1B) Selection of drugs that inhibit leaky scanning. HEK293T cells were transfected with a short 5′UTR bearing GFP reporter gene described on the top, treated with the indicated HTS hits, and then analyzed by western blot with GFP antibody. US and DS denote upstream and downstream AUG initiation sites, respectively. (1C) A graph showing the change in the ratio of the upstream and downstream AUG following treatment with the indicated drugs. (1D) The chemical structure of the eIF1-eIF4G1 inhibitors, i14G1-10 and i14G1-12. (1E) His-tagged eIF4G1 and His-tagged eIF1 were expressed in BL21 bacteria and purified using nickel NTA beads. Purified His-tagged eIF4G1 and His-tagged eIF1 were incubated with the indicated doses of either i14G1-10 (0-256 μM) or i14G1-12 (0-256 μM) for 5 minutes, followed by fluorescence measurement. […] IC50 was calculated using Graphpad prism 9. […]
Intrinsic fluorescence of His-eIF1 and His-eIF4G1. […] After 5 minutes, fluorescence (280/350) was measured on Cytation 5 multi-mode reader (Biotek). The fluorescence intensity values corresponding to respective concentration in both i14G1-10 and i14G1-12 treatments were plotted and IC50 was calculated using GraphPad Prism 9.0. […]

T1 sequence (Q04637 675-1129): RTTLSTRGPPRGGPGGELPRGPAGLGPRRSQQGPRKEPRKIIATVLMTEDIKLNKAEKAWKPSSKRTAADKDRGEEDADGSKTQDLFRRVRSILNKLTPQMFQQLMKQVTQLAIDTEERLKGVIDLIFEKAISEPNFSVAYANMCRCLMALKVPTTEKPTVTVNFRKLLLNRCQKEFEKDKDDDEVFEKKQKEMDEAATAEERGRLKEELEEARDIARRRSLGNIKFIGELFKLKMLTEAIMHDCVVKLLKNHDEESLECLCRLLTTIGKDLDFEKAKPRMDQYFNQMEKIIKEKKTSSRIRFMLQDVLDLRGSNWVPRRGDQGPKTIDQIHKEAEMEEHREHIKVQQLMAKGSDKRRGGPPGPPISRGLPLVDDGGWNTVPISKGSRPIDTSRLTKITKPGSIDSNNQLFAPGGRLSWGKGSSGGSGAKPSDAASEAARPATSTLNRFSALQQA

Q: Which IC50 does the source give for `Cn1ccnc1S/C(=C/C=C(C#N)C#N)c1ccc(Cl)cc1` [i14G1-12] here?
A: Its IC50 is 58.4 µM.
